What was measured:
[1] = biological target: His-tagged KRAS G12D protein (Homo sapiens, UniProt P01116, G12D); experiment: KRAS G12D TR-FRET assay (binding); conditions: biotinylated KRPep-2d substrate, GDP in assay buffer
Procedure: The plate was incubated for 30 minutes at room temperature. Biotinylated KRPep-2d substrate (Amgen) was diluted to 20 nM in Assay Buffer and 2 L was added to all wells and incubated for 1 hour at room temperature. Detection Reagent (0.4 nM LANCE Eu-W1024 Anti-6xHis (Perkin Elmer AD0401), 5 nM streptavidin-d^2 (Cisbio 610SADLA)) was prepared in Assay Buffer, then 4 μL was added to the plate and incubated for 1 hour at room temperature.

[2] = tested on: Phosphorylation of ERK1/2 in AsPC-1 cells; experiment: Phospho-ERK1/2 MSD assay; format: cell-based; conditions: Homo sapiens, ASPC1, read-out: 2 h p-ERK (AsPC-1 cells), IC50 (μM), 2 hours compound treatment
Procedure: Sixteen hours prior to compound treatment, AsPC-1 cells were seeded in 96-well cell culture plates at a density of 25,000 cells/well and incubated at 37° C., 5% CO2. A compound dose-response titration was diluted in growth media, added to appropriate wells of a cell culture plate, and then incubated at 37° C., 5% CO2 for 2 hours.

Chain of His-tagged KRAS G12D protein (P01116 1-188 isoform P01116-2 G12D): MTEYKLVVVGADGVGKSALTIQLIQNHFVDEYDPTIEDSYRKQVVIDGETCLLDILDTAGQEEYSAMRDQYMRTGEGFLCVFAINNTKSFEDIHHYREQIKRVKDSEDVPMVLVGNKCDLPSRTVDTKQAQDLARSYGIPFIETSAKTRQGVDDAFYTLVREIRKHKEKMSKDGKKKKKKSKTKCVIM

CCc1c(F)ccc2cc(O)cc(-c3ncc4c(N5CC6COC(C5)C6O)nc(OC[C@@]56CCCN5C[C@H](F)C6)nc4c3F)c12 (relative stereo) [Example 11, 3-(7-(8-Ethyl-7-fluoro-3-hydroxynaphthalen-1-yl)-8-fluoro-2-(((2R,7aS)-2-fluorotetrahydro-1H-pyrrolizin-7a(5H)-yl)methoxy)pyrido [4,3-d]pyrimidin-4-yl)-6-oxa-3-azabicyclo[3.2.1] octan-8-ol]
IC50 [1]: 39 nM | IC50 [2]: > 10 µM

CCc1c(F)ccc2cc(O)cc(-c3ncc4c(N5CCOCC(C(=O)NC)C5)nc(OC[C@@]56CCCN5C[C@H](F)C6)nc4c3F)c12 (single isomer, unassigned) [Example 45]
IC50 [1]: 2 nM | IC50 [2]: 0.427 µM

CCc1c(F)ccc2cc(O)cc(-c3ncc4c(N5CCOCC(C(N)=O)C5)nc(OC[C@@]56CCCN5C[C@H](F)C6)nc4c3F)c12 (single isomer, unassigned) [Example 47]
IC50 [1]: 3 nM | IC50 [2]: 1.47 µM

CCc1c(F)ccc2cc(O)cc(-c3ncc4c(N5CCCOC(CO)C5)nc(OC[C@@]56CCCN5C[C@H](F)C6)nc4c3F)c12 (single isomer, unassigned) [Example 48]
IC50 [1]: 10 nM | IC50 [2]: 1.05 µM

CCc1c(F)ccc2cc(O)cc(-c3ncc4c(N5CCOCC(C)(O)C5)nc(OC[C@@]56CCCN5C[C@H](F)C6)nc4c3F)c12 (single isomer, unassigned) [Example 69]
IC50 [2]: 0.004 µM

CCc1c(F)ccc2cc(O)cc(-c3ncc4c(N5CC6CC(C#N)C(C5)O6)nc(OC[C@@]56CCCN5C[C@H](F)C6)nc4c3F)c12 (single isomer, unassigned) [Example 72]
IC50 [1]: 6 nM | IC50 [2]: 0.308 µM

CCc1c(F)ccc2cc(O)cc(-c3ncc4c(N5CCOC[C@@](C)(O)C5)nc(OC[C@@]56CCCN5C[C@H](F)C6)nc4c3Cl)c12 (single isomer, unassigned) [Example 80]
IC50 [1]: 4 nM | IC50 [2]: 0.024 µM

CCc1cccc2cc(O)cc(-c3ncc4c(N5CCCOCC5)nc(OC[C@@]56CCCN5C[C@H](F)C6)nc4c3F)c12 [Example 2, 5-Ethyl-4-(8-fluoro-2-(((2R,7aS)-2-fluorotetrahydro-1H-pyrrolizin-7a(5H)-yl)methoxy)-4-(1,4-oxazepan-4-yl)pyrido[4,3-d]pyrimidin-7-yl)naphthalen-2-ol]
IC50 [1]: 1 nM | IC50 [2]: 0.033 µM

Oc1cc(-c2ncc3c(N4CCCOCC4)nc(OC[C@@]45CCCN4C[C@H](F)C5)nc3c2F)c2c(F)c(F)ccc2c1 [Example 3, 5,6-Difluoro-4-(8-fluoro-2-(((2R,7aS)-2-fluorotetrahydro-1H-pyrrolizin-7a(5H)-yl)methoxy)-4-(1,4-oxazepan-4-yl)pyrido[4,3-d]pyrimidin-7-yl)naphthalen-2-ol]
IC50 [1]: 2 nM | IC50 [2]: 0.047 µM

CCc1c(F)ccc2cc(O)cc(-c3ncc4c(N5CCSCC5)nc(OC[C@@]56CCCN5C[C@H](F)C6)nc4c3F)c12 [Example 4, 5-Ethyl-6-fluoro-4-(8-fluoro-2-(((2R,7aS)-2-fluorotetrahydro-1H-pyrrolizin-7a(5H)-yl)methoxy)-4-thiomorpholino-pyrido[4,3-d]pyrimidin-7-yl)naphthalen-2-ol]
IC50 [1]: 4 nM | IC50 [2]: 0.486 µM

CCc1c(F)ccc2cc(O)cc(-c3ncc4c(N5CCCSCC5)nc(OC[C@@]56CCCN5C[C@H](F)C6)nc4c3F)c12 [Example 5, 5-Ethyl-6-fluoro-4-(8-fluoro-2-(((2R,7aS)-2-fluorotetrahydro-1H-pyrrolizin-7a(5H)-yl)methoxy)-4-(1,4-thiazepan-4-yl)pyrido[4,3-d]pyrimidin-7-yl)naphthalen-2-ol]
IC50 [1]: 2 nM | IC50 [2]: 0.088 µM

CCc1c(F)ccc2cc(O)cc(-c3ncc4c(N5[C@@H]6CC[C@H]5COC6)nc(OC[C@@]56CCCN5C[C@H](F)C6)nc4c3F)c12 [Example 6, 4-(4-((1R,5S)-3-Oxa-8-azabicyclo[3.2.1]octan-8-yl)-8-fluoro-2-(((2R,7aS)-2-fluorotetrahydro-1H-pyrrolizin-7a(5H)-yl)methoxy)pyrido [4,3-d]pyrimidin-7-yl)-5-ethyl-6-fluoronaphthalen-2-ol]
IC50 [1]: 69 nM | IC50 [2]: 1.77 µM

CCc1cccc2cc(O)cc(-c3ncc4c(N5CCOCC(F)(F)C5)nc(OC[C@@]56CCCN5C[C@H](F)C6)nc4c3F)c12 [Example 7, 4-(4-(6,6-Difluoro-1,4-oxazepan-4-yl)-8-fluoro-2-(((2R,7aS)-2-fluorotetrahydro-1H-pyrrolizin-7a(5H)-yl)methoxy)pyrido [4,3-d]pyrimidin-7-yl)-5-ethylnaphthalen-2-ol]
IC50 [1]: 2 nM | IC50 [2]: 0.046 µM

CN1C[C@H](F)C[C@H]1COc1nc(N2CCCOCC2)c2cnc(-c3cc(O)cc4ccc(F)c(F)c34)c(F)c2n1 [Example 8, 5,6-Difluoro-4-(8-fluoro-2-(((2S,4R)-4-fluoro-1-methylpyrrolidin-2-yl)methoxy)-4-(1,4-oxazepan-4-yl)pyrido[4,3-d]pyrimidin-7-yl)naphthalen-2-ol]
IC50 [1]: 5 nM | IC50 [2]: 0.103 µM

CCc1c(F)ccc2cc(O)cc(-c3ncc4c(N5CCCOCC5)nc(OC[C@@H]5C[C@@H](F)CN5C)nc4c3F)c12 [Example 9, 5-Ethyl-6-fluoro-4-(8-fluoro-2-(((2S,4R)-4-fluoro-1-methylpyrrolidin-2-yl)methoxy)-4-(1,4-oxazepan-4-yl)pyrido[4,3-d]pyrimidin-7-yl)naphthalen-2-ol]
IC50 [1]: 8 nM | IC50 [2]: 0.353 µM

Oc1cc(-c2ncc3c(N4CCCOCC4)nc(OC[C@@]45CCCN4C[C@H](F)C5)nc3c2F)c2ccccc2c1 [Example 14, 4-(8-Fluoro-2-(((2R,7aS)-2-fluorotetrahydro-1H-pyrrolizin-7a(5H)-yl)methoxy)-4-(1,4-oxazepan-4-yl)pyrido[4,3-d]pyrimidin-7-yl)naphthalen-2-ol]
IC50 [2]: 0.794 µM

CCc1c(F)ccc2cc(O)cc(-c3ncc4c(N5CCOC[C@@H](O)C5)nc(OC[C@@]56CCCN5C[C@H](F)C6)nc4c3F)c12 [Example 25, (S)-4-(7-(8-Ethyl-7-fluoro-3-hydroxynaphthalen-1-yl)-8-fluoro-2-(((2R,7aS)-2-fluorotetrahydro-1H-pyrrolizin-7a(5H)-yl)methoxy)pyrido [4,3-d]pyrimidin-4-yl)-1,4-oxazepan-6-ol]
IC50 [2]: 0.292 µM

CCc1c(F)ccc2cc(O)cc(-c3ncc4c(N5CCOC[C@H](O)C5)nc(OC[C@@]56CCCN5C[C@H](F)C6)nc4c3F)c12 [Example 26, (R)-4-(7-(8-Ethyl-7-fluoro-3-hydroxynaphthalen-1-yl)-8-fluoro-2-(((2R,7aS)-2-fluorotetrahydro-1H-pyrrolizin-7a(5H)-yl)methoxy)pyrido [4,3-d]pyrimidin-4-yl)-1,4-oxazepan-6-ol]
IC50 [2]: 2.27 µM

CCc1c(F)ccc2cc(O)cc(-c3ncc4c(N5CCCOCC5)nc(OC[C@]56CCCN5C[C@H](F)C6)nc4c3F)c12 [Example 41, 5-ethyl-6-fluoro-4-(8-fluoro-2-(((2R, 7aR)-2-fluorotetra-hydro-1H-pyrrol-izin-7a(5H)-yl)-methoxy)-4-(1,4-oxazepan-4-yl)pyr-ido[4,3-d]pyrimi-din-7-yl)naphtha-len-2-ol]
IC50 [2]: 0.035 µM

CCc1c(F)ccc2cc(O)cc(-c3ncc4c(N5CCOC[C@@H](CO)C5)nc(OC[C@@]56CCCN5C[C@H](F)C6)nc4c3F)c12 [Example 50, 5-Ethyl-6-fluoro-4-(8-fluoro-2-(((2R, 7aS)-2-fluorotetra-hydro-1H-pyrrol-izin-7a(5H)-yl)-methoxy)-4-((R)-6-(hydroxymeth-yl)-1,4-oxazepan-4-yl)pyrido[4,3-d]pyrimidin-7-yl)-naphthalen-2-ol]
IC50 [2]: 0.07 µM

CCc1c(F)ccc2cc(O)cc(-c3ncc4c(N5CCOC(CO)C5)nc(OC[C@@]56CCCN5C[C@H](F)C6)nc4c3F)c12 (stereo partly drawn) [Example 60, 5-Ethyl-6-fluoro-4-(8-fluoro-2-(((2R, 7aS)-2-fluorotetra-hydro-1H-pyrrol-izin-7a(5H)-yl)-methoxy)-4-(2-(hydroxymethyl)-morpholino)pyrido [4,3-d]pyrimidin-7-yl)naphthalen-2-ol]
IC50 [1]: 15 nM

CCc1c(F)ccc2cc(O)cc(-c3ncc4c(N5C[C@H]6CCC[C@@H](C5)O6)nc(OC[C@@]56CCCN5C[C@H](F)C6)nc4c3F)c12 [Example 64, 4-(4-((1R,5S)-9-oxa-3-azabicyclo [3.3.1]nonan-3-yl)-8-fluoro-2-(((2R, 7aS)-2-fluorotetra-hydro-1H-pyrrolizin-7a(5H)-yl)methoxy)-pyrido[4,3-d]pyrim-idin-7-yl)-5-ethyl-6-fluoronaphthalen-2-ol]
IC50 [1]: 44 nM

CCc1c(F)ccc2cc(O)cc(-c3ncc4c(N5CCOC(CC#N)C5)nc(OC[C@@]56CCCN5C[C@H](F)C6)nc4c3F)c12 (stereo partly drawn) [Example 65, 2-(4-(7-(8-Ethyl-7-fluoro-3-hydroxy-naphthalen-1-yl)-8-fluoro-2-(((2R,7aS)-2-fluorotetrahydro-1H-pyrrolizin-7a(5H)-yl)methoxy)-pyrido[4,3-d]pyrim-idin-4-yl)morpholin-2-yl)acetonitrile]
IC50 [1]: 43 nM

CCc1c(F)ccc2cc(O)cc(-c3ncc4c(N5CCOC(C(F)F)C5)nc(OC[C@@]56CCCN5C[C@H](F)C6)nc4c3F)c12 (stereo partly drawn) [Example 75, 4-(4-(2-(Difluoromethyl)morpholino)-8-fluoro-2-(((2R,7aS)-2-fluorotetrahydro-1H-pyrrolizin-7a(5H)-yl)methoxy)pyrido[4,3-d]pyrimidin-7-yl)-5-ethyl-6-fluoronaphthalen-2-ol]
IC50 [1]: 52 nM

CCc1c(F)ccc2cc(O)cc(-c3ncc4c(N5CCCOCC5)nc(OCC5(CO)CC5)nc4c3F)c12 [Example 77, 5-Ethyl-6-fluoro-4-(8-fluoro-2-((1-(hydroxymethyl)cyclopropyl)methoxy)-4-(1,4-oxazepan-4-yl)pyrido[4,3-d]pyrimidin-7-yl)naphthalen-2-ol]
IC50 [1]: 41 nM

Source: patent US20250122222A1, “HETEROCYCLIC COMPOUNDS AND METHODS OF USE” (AMGEN INC., priority 2021, published 2025)
